The test system of the assay is Erwinia amylovora 385. Description: Reduction of the Erwinia amylovora population on apple blossom. Format: in vivo. Particulars: 0.06% streptomycin; apple blossom cv. Gala; 10^6 bacteria/ml; sprayed one hour after inoculation; 6 days at 20 to 23° C.; tests 4 to 6. On the procedure:
2. Testing the Reduction of the Erwinia amylovora Population on Apple Blossom
Test plants: Apple blossom cv. Gala
Apple blossom cv. Gala were used in the following tests. The trees had not been treated with plant protection compositions. The flowers were placed by the petiole into a 10% strength sucrose solution and incubated in a humid chamber. 24 flowers were employed per treatment and repletition, and the test was repeated in each case three times.
Pathogen: Erwinia amylovora 385 was grown on agar plates. The apple blossom was inoculated with a suspension of 10^6 bacteria/ml.
Plant Treatment Composition:
1 part by weight of a solid formulation comprising
63.75% by weight of calcium formate
18.75% by weight of citric acid
16.73% by weight of calcium chloride
0.77% by weight of wetting agent and anti-dust agent were dissolved in 50 parts by weight (P 2%) of tap water and the solution was used for the following treatment. The pH was 4.1.
To carry out the treatments, the blossom was sprayed with the respective solution one hour after the inoculation, the chamber was sealed, and the contents were incubated for 6 days at 20 to 23° C.
(1-3) Water as the control
(4-6) 0.06% streptomycin (for comparison)

Values joined by “and” are separate entries in the source; they are usually repeats but may differ in a detail not shown here. Equal entries are not always repeated.

Turning to `[H]/N=C(/N)N[C@H]1[C@H](O)[C@@H](O)[C@H](O[C@@H]2O[C@@H](C)[C@](O)(C=O)[C@H]2O[C@@H]2O[C@@H](CO)[C@H](O)[C@@H](O)[C@@H]2NC)[C@@H](N/C(N)=N\[H])[C@@H]1O` [streptomycin], the Efficacy was 84.6% and 89.5% and 95.5%.

For the origin of these results see US20110165267A1, “AGENTS FOR TREATING AND/OR AVOIDING FIRE BLIGHT” (LANXESS DISTRIBUTION GMBH, priority 2008, published 2011).
